Data reported in patent publication US11357779B2 (G1 Therapeutics, Inc., priority 2018, dated 2022).
Like-named read-outs stand apart in the source and are kept apart here.

Assay: Noncompartmental pharmacokinetic parameters (Cmax, Tmax, AUC, Racc) in QD and BID cohorts of Form B
Assay type: in vivo, human
Details: Compound III; for AUC(0-t) / Cmax / Tmax: human, plasma, oral
Procedure: Analysis of plasma concentration versus time data for calculation of standard pharmacokinetic (PK) parameters following oral administration was conducted using Phoenix WinNonlin version 6.3 using actual blood sampling times.
The following pharmacokinetic parameters were calculated from the concentration versus time data obtained in Example 1 for each of the above QD (200 mg, 300 mg, 400 mg, 500 mg, or 650 mg dosed) and BID (100 mg, 150 mg, or 200 mg doses) Form B of Compound II dosage cohorts: • Cmax—the observed peak plasma concentration determined from the plasma concentration versus time data obtained on Day 1 and Day 29, as applicable; • Tmax—the time to reach the observed peak plasma concentration from the plasma concentration versus time data obtained on Day 1 and Day 29, as applicable; • AUC—area under the plasma concentration versus time curve during a dosing interval on Day 1 and Day 29, as applicable; and • Racc—accumulation ratio calculated as AUCDay 29/AUCDay 1.

[1] = 100 mg BID of Form B, Cohort 6, Day 1
[2] = 100 mg BID of Form B, Cohort 6, Day 29
[3] = 150 mg BID of Form B, Cohort 7, Day 1
[4] = 150 mg BID of Form B, Cohort 7, Day 29
[5] = 200 mg BID of Form B, Cohort 8, Day 1
[6] = 200 mg BID of Form B, Cohort 8, Day 29
[7] = 200 mg QD of Form B, Cohort 1, Day 1
[8] = 200 mg QD of Form B, Cohort 1, Day 29
[9] = 300 mg QD of Form B, Cohort 2, Day 1
[10] = 300 mg QD of Form B, Cohort 2, Day 29
[11] = 400 mg QD of Form B, Cohort 3, Day 1
[12] = 400 mg QD of Form B, Cohort 3, Day 29
[13] = 500 mg QD of Form B, Cohort 4, Day 1
[14] = 500 mg QD of Form B, Cohort 4, Day 29
[15] = 650 mg QD of Form B, Cohort 5, Day 1
[16] = 650 mg QD of Form B, Cohort 5, Day 29

AUClast (Max) [1]: 8.61 ng·h/mL
AUClast (Min) [1]: 2.87 ng·h/mL
Cmax (Max) [1]: 2.12 ng/mL
Cmax (Min) [1]: 1.11 ng/mL
AUClast (Max) [2]: 21.6 ng·h/mL
AUClast (Min) [2]: 3.45 ng·h/mL
Cmax (Max) [2]: 3.11 ng/mL
Cmax (Min) [2]: 0.855 ng/mL
Tmax (Max) [2]: 12.0 h
AUClast (Max) [3]: 17.5 ng·h/mL
AUClast (Min) [3]: 15.7 ng·h/mL
Cmax (Max) [3]: 3.67 ng/mL
Cmax (Min) [3]: 2.93 ng/mL
AUClast (Max) [4]: 101 ng·h/mL
AUClast (Min) [4]: 19.4 ng·h/mL
Cmax (Max) [4]: 12.2 ng/mL
Cmax (Min) [4]: 2.93 ng/mL
AUClast (Max) [5]: 25.4 ng·h/mL
AUClast (Min) [5]: 6.18 ng·h/mL
Cmax (Max) [5]: 4.07 ng/mL
Cmax (Min) [5]: 1.40 ng/mL
AUClast (Max) [6]: 30.8 ng·h/mL
AUClast (Min) [6]: 15.2 ng·h/mL
Cmax (Max) [6]: 4.12 ng/mL
Cmax (Min) [6]: 1.49 ng/mL
Tmax (Max) [6]: 12.0 h
AUClast (Max) [7]: 58.5 ng·h/mL
AUClast (Min) [7]: 5.29 ng·h/mL
Cmax (Max) [7]: 7.82 ng/mL
Cmax (Min) [7]: 1.27 ng/mL
AUClast (Max) [8]: 64.2 ng·h/mL
AUClast (Min) [8]: 1.97 ng·h/mL
Cmax (Max) [8]: 6.11 ng/mL
Cmax (Min) [8]: 0.864 ng/mL
AUClast (Max) [9]: 65.2 ng·h/mL
AUClast (Min) [9]: 10.9 ng·h/mL
Cmax (Max) [9]: 6.40 ng/mL
Cmax (Min) [9]: 1.82 ng/mL
Tmax (Min) [9]: 60 min
AUClast (Max) [10]: 97.5 ng·h/mL
AUClast (Min) [10]: 45.1 ng·h/mL
Cmax (Max) [10]: 6.05 ng/mL
Cmax (Min) [10]: 4.70 ng/mL
Tmax (Max) [10]: 8.00 h
AUClast (Max) [11]: 29.8 ng·h/mL
AUClast (Min) [11]: 17.8 ng·h/mL
Cmax (Max) [11]: 6.87 ng/mL
Cmax (Min) [11]: 3.02 ng/mL
Tmax (Min) [11]: 60 min
AUClast (Max) [12]: 54.7 ng·h/mL
AUClast (Min) [12]: 32.2 ng·h/mL
Cmax (Max) [12]: 4.54 ng/mL
Cmax (Min) [12]: 2.55 ng/mL
AUClast (Max) [13]: 91.4 ng·h/mL
AUClast (Min) [13]: 61.6 ng·h/mL
Cmax (Max) [13]: 9.03 ng/mL
Cmax (Min) [13]: 6.84 ng/mL
AUClast (Max) [14]: 69.8 ng·h/mL
AUClast (Min) [14]: 59.8 ng·h/mL
Cmax (Max) [14]: 7.91 ng/mL
AUClast (Max) [15]: 174 ng·h/mL
AUClast (Min) [15]: 61.8 ng·h/mL
Cmax (Max) [15]: 16.5 ng/mL
Cmax (Min) [15]: 5.56 ng/mL
Tmax (Max) [15]: 8.00 h
AUClast (Max) [16]: 169 ng·h/mL
AUClast (Min) [16]: 80.6 ng·h/mL
Cmax (Max) [16]: 12.1 ng/mL
Cmax (Min) [16]: 5.30 ng/mL
Tmax (Max) [16]: 8.00 h
AUC(0-t) (100 mg, 100 mg BID of Form B, Cohort 6, Day 1, read-out: AUClast (Mean)): 5.37 ng·h/mL
AUC(0-t) (100 mg, 100 mg BID of Form B, Cohort 6, Day 1, read-out: AUClast (Median)): 5.18 ng·h/mL
Cmax (100 mg, 100 mg BID of Form B, Cohort 6, Day 1, read-out: Cmax (Mean)): 1.59 ng/mL
Cmax (100 mg, 100 mg BID of Form B, Cohort 6, Day 1, read-out: Cmax (Median)): 1.6 ng/mL
Tmax (100 mg, 100 mg BID of Form B, Cohort 6, Day 1, read-out: Tmax (Mean)): 3.17 h
Tmax (100 mg, 100 mg BID of Form B, Cohort 6, Day 1, read-out: Tmax (Median)): 3 h
AUC(0-t) (100 mg, 100 mg BID of Form B, Cohort 6, Day 29, read-out: AUClast (Mean)): 13 ng·h/mL
AUC(0-t) (100 mg, 100 mg BID of Form B, Cohort 6, Day 29, read-out: AUClast (Median)): 9.86 ng·h/mL
Cmax (100 mg, 100 mg BID of Form B, Cohort 6, Day 29, read-out: Cmax (Mean)): 1.89 ng/mL
Cmax (100 mg, 100 mg BID of Form B, Cohort 6, Day 29, read-out: Cmax (Median)): 1.56 ng/mL
Tmax (100 mg, 100 mg BID of Form B, Cohort 6, Day 29, read-out: Tmax (Mean)): 4.4 h
Tmax (100 mg, 100 mg BID of Form B, Cohort 6, Day 29, read-out: Tmax (Median)): 2 h
AUC(0-t) (150 mg, 150 mg BID of Form B, Cohort 7, Day 1, read-out: AUClast (Mean)): 16.5 ng·h/mL
Structure (SMILES): O=C1NCC2(CCCCC2)n2c1cc1cnc(Nc3ccc(N4CCNCC4)cn3)nc12 [Compound III, 2′-((5-(piperazin-1-yl)pyridin-2-yl)amino)-7′,8′-dihydro-6′H-spiro[cyclohexane-1,9′-pyrazino[1′,2′:1,5]pyrrolo[2,3-d]pyrimidin]-6′-one]
